From patent US12448392B2, “Spiropiperidine derivatives” (89BIO LTD, priority 2016, dated 2025)
pIC50: −log10 of the molar value. Counter-ions that a name gives are not always drawn.

The compounds below were run against T1, recombinant human baculovirus-expressed GST-tagged FASN (Homo sapiens, UniProt P49327) (assay: biochemical). Details: not given.
T1 construct: GST
T1 sequence (P49327 whole entry): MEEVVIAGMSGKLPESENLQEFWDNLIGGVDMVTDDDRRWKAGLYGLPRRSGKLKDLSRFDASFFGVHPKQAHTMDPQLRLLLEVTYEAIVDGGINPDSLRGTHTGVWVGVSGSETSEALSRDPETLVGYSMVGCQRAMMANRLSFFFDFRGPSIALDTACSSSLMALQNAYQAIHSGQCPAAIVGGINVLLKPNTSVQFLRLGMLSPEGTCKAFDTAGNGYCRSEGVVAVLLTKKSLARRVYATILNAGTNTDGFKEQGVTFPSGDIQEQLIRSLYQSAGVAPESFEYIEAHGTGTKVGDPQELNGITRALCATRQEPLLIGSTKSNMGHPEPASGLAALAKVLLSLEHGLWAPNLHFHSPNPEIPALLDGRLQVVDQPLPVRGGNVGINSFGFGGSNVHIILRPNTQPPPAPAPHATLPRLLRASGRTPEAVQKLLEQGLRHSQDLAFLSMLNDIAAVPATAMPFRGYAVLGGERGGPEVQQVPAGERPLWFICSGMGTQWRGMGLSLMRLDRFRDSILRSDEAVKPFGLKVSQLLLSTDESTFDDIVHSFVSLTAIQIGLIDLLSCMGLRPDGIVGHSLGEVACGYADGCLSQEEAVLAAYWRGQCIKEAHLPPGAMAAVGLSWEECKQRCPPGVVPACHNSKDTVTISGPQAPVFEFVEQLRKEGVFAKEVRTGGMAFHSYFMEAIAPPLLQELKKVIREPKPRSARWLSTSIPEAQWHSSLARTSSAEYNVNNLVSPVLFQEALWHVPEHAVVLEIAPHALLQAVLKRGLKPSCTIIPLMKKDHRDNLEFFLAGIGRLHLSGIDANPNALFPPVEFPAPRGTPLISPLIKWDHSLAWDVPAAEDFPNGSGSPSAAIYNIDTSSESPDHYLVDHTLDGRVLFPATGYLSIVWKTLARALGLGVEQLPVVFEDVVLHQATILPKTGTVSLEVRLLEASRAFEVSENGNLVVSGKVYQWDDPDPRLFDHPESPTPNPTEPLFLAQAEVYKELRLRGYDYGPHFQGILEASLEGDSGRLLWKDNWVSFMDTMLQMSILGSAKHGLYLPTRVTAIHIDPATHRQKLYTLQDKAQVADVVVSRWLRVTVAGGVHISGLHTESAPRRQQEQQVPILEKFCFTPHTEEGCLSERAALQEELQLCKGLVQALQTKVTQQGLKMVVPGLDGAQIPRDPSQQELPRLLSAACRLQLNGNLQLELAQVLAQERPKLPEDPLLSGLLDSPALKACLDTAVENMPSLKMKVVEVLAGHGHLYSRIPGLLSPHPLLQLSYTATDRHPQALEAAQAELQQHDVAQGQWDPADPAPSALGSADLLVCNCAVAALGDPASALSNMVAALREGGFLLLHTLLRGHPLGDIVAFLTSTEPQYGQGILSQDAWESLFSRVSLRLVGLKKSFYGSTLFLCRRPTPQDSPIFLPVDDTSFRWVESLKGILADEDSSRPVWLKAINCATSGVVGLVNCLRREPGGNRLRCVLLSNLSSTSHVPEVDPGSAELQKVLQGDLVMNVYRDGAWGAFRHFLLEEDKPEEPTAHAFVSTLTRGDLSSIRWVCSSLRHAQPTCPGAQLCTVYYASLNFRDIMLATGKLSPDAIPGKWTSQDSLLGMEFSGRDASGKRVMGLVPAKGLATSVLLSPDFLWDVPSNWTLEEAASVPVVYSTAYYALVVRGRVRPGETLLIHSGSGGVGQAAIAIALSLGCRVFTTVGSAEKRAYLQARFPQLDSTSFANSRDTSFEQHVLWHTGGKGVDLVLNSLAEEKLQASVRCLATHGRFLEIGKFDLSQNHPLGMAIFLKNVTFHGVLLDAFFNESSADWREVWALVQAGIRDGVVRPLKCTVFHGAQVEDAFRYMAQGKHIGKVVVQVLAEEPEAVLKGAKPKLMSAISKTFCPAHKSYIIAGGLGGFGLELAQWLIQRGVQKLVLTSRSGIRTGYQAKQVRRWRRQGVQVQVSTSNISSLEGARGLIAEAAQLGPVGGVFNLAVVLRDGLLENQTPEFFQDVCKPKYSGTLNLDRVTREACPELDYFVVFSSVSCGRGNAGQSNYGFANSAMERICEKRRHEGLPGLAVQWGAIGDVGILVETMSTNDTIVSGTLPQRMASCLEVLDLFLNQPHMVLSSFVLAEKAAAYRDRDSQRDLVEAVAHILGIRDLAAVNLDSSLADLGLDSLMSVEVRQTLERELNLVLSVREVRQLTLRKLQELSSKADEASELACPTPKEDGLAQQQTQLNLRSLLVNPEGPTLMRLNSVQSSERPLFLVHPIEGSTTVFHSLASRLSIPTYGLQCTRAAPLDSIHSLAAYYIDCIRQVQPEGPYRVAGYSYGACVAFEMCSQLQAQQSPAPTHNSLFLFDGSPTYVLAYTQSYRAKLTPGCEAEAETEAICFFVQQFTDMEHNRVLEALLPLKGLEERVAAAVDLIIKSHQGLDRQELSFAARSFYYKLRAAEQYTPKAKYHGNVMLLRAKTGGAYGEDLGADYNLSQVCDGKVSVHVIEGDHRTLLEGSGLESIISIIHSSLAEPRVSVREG
With CCONC(=O)N1CCC2(CC1)OCc1cc(-c3ccc4cccnc4c3Cl)ccc1O2 [Example 135, 6-(8-Chloro-7-quinolyl)-N-ethoxy-spiro[4H-1,3-benzodioxine-2,4′-piperidine]-1′-carboxamide] the pIC50 was 7.00 to 9.00.
Cc1c(-c2ccc3c(c2)CCOC2(CCN(C(N)=O)CC2)O3)ccc2cccnc12 [Example 77, 7-(8-methyl-7-quinolyl)spiro[4,5-dihydro-1,3-benzodioxepine-2,4′-piperidine]-1′-carboxamide] gave a pIC50 of 6.00 to 7.00.
CCOC(=O)N1CCC2(CC1)OCc1cc(-c3ccc4cnc(C)cc4c3)ccc1O2 [Example 200, Ethyl 6-(3-methyl-6-isoquinolyl)spiro[4H-1,3-benzodioxine-2,4′-piperidine]-1′-carboxylate] gave a pIC50 of 5.00 to 6.00.
Work on CONC(=O)N1CCC2(CC1)OCc1cc(-c3ccc4c(C)nccc4c3)cc(OC)c1O2 [Example 248] yielded a pIC50 of 5.00 to 6.00.
In the case of O=C(C1CCC1)N1CCC2(CC1)OCc1cc(-c3cnc4ccccc4c3)ccc1O2 [Example 41, Cyclobutyl-[6-(3-quinolyl)spiro[4H-1,3-benzodioxine-2,4′-piperidine]-1′-yl]methanone], the pIC50 was 7.00 to 9.00.
In the case of NC(=O)N1CCC2(CC1)OCc1cc(-c3ccc4cccnc4c3Cl)ccc1O2 [Example 131, 6-(8-Chloro-7-quinolyl)spiro[4H-1,3-benzodioxine-2,4′-piperidine]-1′-carboxamide], the pIC50 was 6.00 to 7.00.
Compound Cc1c(-c2ccc3c(c2)COC2(CCN(C(N)=O)CC2)O3)ccc2cccnc12 [Example 118, 6-(8-Methyl-7-quinolyl)spiro[4H-1,3-benzodioxine-2,4′-piperidine]-1′-carboxamide] has a pIC50 of 7.00 to 9.00.
For CCC(=O)N1CCC2(CC1)OCc1cc(-c3cnc4ccccc4c3C)ccc1O2 [Example 52, 1-[6-(4-Methyl-3-quinolyl)spiro[4H-1,3-benzodioxine-2,4′-piperidine]-1′-yl]propan-1-one], the pIC50 was 7.00 to 9.00.
Work on CCC(=O)N1CCC2(CC1)OCc1cc(-c3ccncc3)ccc1O2 [Example 232, 1-[6-(4-Pyridyl)spiro[4H-1,3-benzodioxine-2,4′-piperidine]-1′-yl]propan-1-one, HCl] yielded a pIC50 of 5.00 to 6.00.
CCNC(=O)N1CCC2(CC1)OCc1cc(-c3ccc4cnc(C)cc4c3)ccc1O2 [Example 202, N-Ethyl-6-(3-methyl-6-isoquinolyl)spiro[4H-1,3-benzodioxine-2,4′-piperidine]-1′-carboxamide] gave a pIC50 of 7.00 to 9.00.
CC(C)C(=O)N1CCC2(CC1)OCc1cc(-c3cnc4ccccc4c3)ccc1O2 [Example 34, 2-Methyl-1-[6-(3-quinolyl)spiro[4H-1,3-benzodioxine-2,4′-piperidine]-1′-yl]propan-1-one] showed a pIC50 of 7.00 to 9.00.
In the case of O=C([C@H]1CCCO1)N1CCC2(CC1)OCc1cc(-c3ccc4cccnc4c3Cl)ccc1O2 [Example 59, [6-(8-Chloro-7-quinolyl)spiro[4H-1,3-benzodioxine-2,4′-piperidine]-1′-yl]-[(2R)-tetrahydrofuran-2-yl]methanone], the pIC50 was 7.00 to 9.00.
For CCOC(=O)N1CCC2(CC1)OCc1cc(-c3ccc4cccnc4c3Cl)ccc1O2 [Example 137, Ethyl 6-(8-chloro-7-quinolyl)spiro[4H-1,3-benzodioxine-2,4′-piperidine]-1′-carboxylate], the pIC50 was 5.00 to 6.00.
NC(=O)N1CCC2(CC1)OCc1cc(-c3cc4ccccc4cn3)ccc1O2 [Example 142, 6-(3-Isoquinolyl)spiro[4H-1,3-benzodioxine-2,4′-piperidine]-1′-carboxamide] gave a pIC50 of 5.00 to 6.00.
Work on Cc1c(-c2ccc3c(c2)COC2(CCN(C(=O)NC(C)C)CC2)O3)ccc2cccnc12 [Example 119, N-Isopropyl-6-(8-methyl-7-quinolyl)spiro[4H-1,3-benzodioxine-2,4′-piperidine]-1′-carboxamide] yielded a pIC50 of 7.00 to 9.00.

Same assay, conditions: 5 nM FASN, 150 μM NADPH, 10 μM acetyl-CoA, 25 μM malonyl-CoA, 90 minutes incubation; read-out: IC50 data for Compounds of Formula I, Activity
Cc1c(-c2ccc3c(c2)CCC2(CCN(C(=O)C4CC4)CC2)O3)ccc2nccn12 [Example 27, Cyclopropyl-[6-(5-methylimidazo[1,2-a]pyridin-6-yl)spiro[chromane-2,4′-piperidine]-1′-yl]methanone] showed a pIC50 of 6.00 to 7.00.
CCNC(=O)N1CCC2(CCc3cc(-c4ccc5c(C)nccc5c4)ccc3O2)CC1 [Example 187, N-Ethyl-6-(1-methyl-6-isoquinolyl)spiro[chromane-2,4′-piperidine]-1′-carboxamide] showed a pIC50 of 7.00 to 9.00.
In the case of O=C(NOC1CCCCO1)N1CCC2(CCc3cc(-c4cc5ccccc5cn4)ccc3O2)CC1 (stereo not shown) [Example 146, 6-(3-Isoquinolyl)-N-tetrahydropyran-2-yloxy-spiro[chromane-2,4′-piperidine]-1′-carboxamide], the pIC50 was 6.00 to 7.00.
With Cc1cc2cc(-c3ccc4c(c3)CCC3(CCN(C(N)=O)CC3)O4)ccc2cn1 [Example 206, 6-(3-Methyl-6-isoquinolyl)spiro[chromane-2,4′-piperidine]-1′-carboxamide] the pIC50 was 5.00 to 6.00.
CCC(=O)N1CCC2(C=Cc3cc(-c4cnc5ccccc5c4)ccc3O2)CC1 [Example 43, 1-[6-(3-Quinolyl)spiro[chromene-2,4′-piperidine]-1′-yl]propan-1-one] gave a pIC50 of 7.00 to 9.00.
Work on CC(C)CNC(=O)N1CCC2(CCc3cc(-c4ccc5nccn5c4Cl)ccc3O2)CC1 [Example 177, 6-(5-Chloroimidazo[1,2-a]pyridin-6-yl)-N-isobutyl-spiro[chromane-2,4′-piperidine]-1′-carboxamide] yielded a pIC50 of 7.00 to 9.00.
Cc1c(-c2ccc3c(c2)CCC2(CCN(C(N)=O)CC2)O3)ccc2cccnc12 [Example 106, 6-(8-Methyl-7-quinolyl)spiro[chromane-2,4′-piperidine]-1′-carboxamide] gave a pIC50 of 7.00 to 9.00.
In the case of NC(=O)N1CCC2(CCc3cc(-c4cnc5ccccc5c4)ccc3O2)CC1 [Example 72, 6-(3-Quinolyl)spiro[chromane-2,4′-piperidine]-1′-carboxamide], the pIC50 was 6.00 to 7.00.
Compound COc1c(-c2ccc3c(c2)CCC2(CCN(C(N)=O)CC2)O3)ccc2cccnc12 [Example 175, 6-(8-Methoxy-7-quinolyl)spiro[chromane-2,4′-piperidine]-1′-carboxamide] has a pIC50 of 7.00 to 9.00.
Cc1c(-c2ccc3c(c2)CCC2(CCN(C(=O)NOC(C)C)CC2)O3)ccc2ccnn12 [Example 116, N-Isopropoxy-6-(7-methylpyrazolo[1,5-a]pyridin-6-yl)spiro[chromane-2,4′-piperidine]-1′-carboxamide] gave a pIC50 of 7.00 to 9.00.
For COc1c(-c2ccc3c(c2)CC2(CCN(C(=O)NO)CC2)O3)ccc2cccnc12 [Example 173, 5-(8-Methoxy-7-quinolyl)spiro[3H-benzofuran-2,4′-piperidine]-1′-carbohydroxamic acid], the pIC50 was 5.00 to 6.00.
With CCC(=O)N1CCC2(CC1)CC(O)c1cc(-c3cnc4ccccc4c3)ccc1O2 (stereo not shown) [Example 42, 1-[4-Hydroxy-6-(3-quinolyl)spiro[chromane-2,4′-piperidine]-1′-yl]propan-1-one] the pIC50 was 6.00 to 7.00.
CONC(=O)N1CCC2(CC1)Cc1cc(-c3ccc4ccnn4c3C)ccc1O2 [Example 170, N-Methoxy-5-(7-methylpyrazolo[1,5-a]pyridin-6-yl)spiro[3H-benzofuran-2,4′-piperidine]-1′-carboxamide] showed a pIC50 of 5.00 to 6.00.
Compound Cc1c(-c2ccc3c(c2)CC2(CCN(C(=O)NOC4CCCCO4)CC2)O3)ccc2ccnn12 (stereo not shown) [Example 171, 5-(7-Methylpyrazolo[1,5-a]pyridin-6-yl)-N-tetrahydropyran-2-yloxy-spiro[3H-benzofuran-2,4′-piperidine]-1′-carboxamide] has a pIC50 of 5.00 to 6.00.
For Cc1c(-c2ccc3cccnc3c2C)ccc2c1CCC1(CCN(C(N)=O)CC1)O2 [Example 240, 5-Methyl-6-(8-methyl-7-quinolyl)spiro[chromane-2,4′-piperidine]-1′-carboxamide], the pIC50 was 5.00 to 6.00.
Compound Cc1c(-c2ccc3c(c2)CCC2(CCN(C(=O)NCC4CC4)CC2)O3)ccc2cccnc12 [Example 100, N-(Cyclopropylmethyl)-6-(8-methyl-7-quinolyl)spiro[chromane-2,4′-piperidine]-1′-carboxamide] has a pIC50 of 7.00 to 9.00.
With Cc1c(-c2ccc3c(c2)CCC2(CCN(C(=O)NC(C)C)CC2)O3)ccc2cccnc12 [Example 98, N-Isopropyl-6-(8-methyl-7-quinolyl)spiro[chromane-2,4′-piperidine]-1′-carboxamide] the pIC50 was 6.00 to 7.00.
Cc1c(-c2ccc3c(c2)C(=O)CC2(CCN(C(N)=O)CC2)O3)ccc2cccnc12 [Example 212, 6-(8-methyl-7-quinolyl)-4-oxo-spiro[chromane-2,4′-piperidine]-1′-carboxamide] was tested, and the pIC50 was 6.00 to 7.00.
Cc1c(-c2ccc3c(c2)CCC2(CCN(C(=O)CO)CC2)O3)ccc2cccnc12 [Example 61, 2-Hydroxy-1-[6-(8-methyl-7-quinolyl)spiro[chromane-2,4′-piperidine]-1′-yl]-ethanone] was tested, and the pIC50 was 6.00 to 7.00.
Cc1c(-c2ccc3c(c2)CCC2(CCN(C(=O)NO)CC2)O3)ccc2cccnc12 [Example 105, 6-(8-methyl-7-quinolyl)spiro[chromane-2,4′-piperidine]-1′-carbohydroxamic acid] showed a pIC50 of 6.00 to 7.00.
With CCNC(=O)N1CCC2(CCc3cc(-c4ccc5ccnn5c4C)ccc3O2)CC1 [Example 112, N-Ethyl-6-(7-methylpyrazolo[1,5-a]pyridin-6-yl)spiro[chromane-2,4′-piperidine]-1′-carboxamide] the pIC50 was 7.00 to 9.00.
CCC(=O)N1CCC2(CCc3cc(-c4cc(C)c5ncccc5c4)ccc3O2)CC1 [Example 17, 1-[6-(8-Methyl-6-quinolyl)spiro[chromane-2,4′-piperidine]-1′-yl]propan-1-one, HCl] was tested, and the pIC50 was 6.00 to 7.00.
For CONC(=O)N1CCC2(CCc3cc(-c4cc5ccccc5cn4)ccc3O2)CC1 [Example 148, 6-(3-Isoquinolyl)-N-methoxy-spiro[chromane-2,4′-piperidine]-1′-carboxamide], the pIC50 was 7.00 to 9.00.
O=C(C1CC1)N1CCC2(CC1)CC(O)c1cc(-c3cnc4ccccc4c3)ccc1O2 (stereo not shown) [Example 46, Cyclopropyl-[4-hydroxy-6-(3-quinolyl)spiro[chromane-2,4′-piperidine]-1′-yl]methanone] was tested, and the pIC50 was 6.00 to 7.00.
O=C(NO)N1CCC2(CCc3cc(-c4cc5ccccc5cn4)ccc3O2)CC1 [Example 151, 6-(3-Isoquinolyl)spiro[chromane-2,4′-piperidine]-1′-carbohydroxamic acid] showed a pIC50 of 5.00 to 6.00.
